From patent US20130260365A1, “HIGHLY EFFICIENT PROCESS FOR PRODUCING BIOETHANOL” (HONDA MOTOR CO., LTD., priority 2012, published 2013) come the findings set out here.

The test system of assay [1] is fermentative microorganism cell (yeast). Nature of the assay: microbe, parasite or virus in culture. The conditions noted are these: Saccharomyces cerevisiae, 24 h, read-out: Growth inhibition (%). Here is the method: Sugar solutions to which acetic acid or formic acid was added were prepared for comparison with a reagent sugar solution containing no organic acid, and the fermentative microorganism cell of the same count was added to each sugar solution and cultured. At this time, the pHs of the reagent sugar solutions were adjusted to be the same. The absorbance of the microorganic counts was measured 24 hours later. Using the sugar solution to which acetic acid or formic acid was not added as the criterion, the degrees of growth inhibition are shown below.

Assay [2] shares this test system. The conditions noted are these: for growth inhibition of fermentative microorganism cell: acetic acid 1000 or 500 mg/L, or formic acid 400 mg/L, added to reagent sugar solution, after 24 hours, compared with no organic acid added.
The subject of assay [3] is fermentative microorganism cell. As to conditions: acetic acid added to give 17.79 mM vs sugar solution without acetic acid.
Method: A model experiment was subsequently carried out. After 72 hours from feeding a microorganism cell to a rice straw sugar solution at 50° C.

For `CC(=O)O` [Acetic acid, acetic acid], in assay [1], the inhibition (as a rule, the relative decrease from the control value, in per cent) at 5900 µM is 10.4%; the inhibition at 11900 µM stood at 28.8%; the inhibition at 17800 µM turned out to be 75.3%. Moreover, the “growth of the fermentative microorganism cell” value in assay [2] (3000 mg/L of acetic acid added to the reagent sugar solution) was “no growth”. In addition, in assay [2], the “growth inhibition of fermentative microorganism cell” value is on record as “growth inhibition of fermentative microorganism cell was observed”. The “microorganic growth (absorbance)” value in assay [3] was “evidently poorer”.
In the case of `O=CO` [Formic acid, formic acid], in assay [1], the inhibition at 10000 µM was determined as 5.6%, the inhibition at 20000 µM is 61.1% and the inhibition at 30000 µM amounted to 71.4%. In addition, in assay [2], the “growth inhibition of fermentative microorganism cell” value was “growth inhibition of fermentative microorganism cell was observed”.
